# Source: patent US9624549B2, “Stable gene targets in breast cancer and use thereof for optimizing therapy” (Cytognomix Inc., priority 2012, dated 2017)
# Where “and” joins values, the source holds several entries; their conditions need not be identical. Identical values can stand only once. Like-named read-outs stand apart in the source and are kept apart here.
# Columns and labels:
# [1] = test system: triple-negative breast cancer cell lines; conditions: triple-negative breast cancer cell lines (Liu et al. 2009); cited from earlier work
# T47D = T47D cell line; replicate assays; cited from earlier work
# BT549 = BT549 cell line; replicate assays; cited from earlier work
# MCF7 = MCF7 cell line; replicate assays; cited from earlier work
# HS578T [2] = conditions: HS578T cell line; replicate assays; cited from earlier work
# MDAMB231 = conditions: MDA231 (MDAMB231) cell line; replicate assays; cited from earlier work
# HS578T [3] = test: GI50 of breast cancer cell lines from NCI60 panel; type: cell-based; conditions: Homo sapiens, Hs-578T, mean of replicate GI50s, read-out: mean concentration (GI50) (converted)
# Excerpt: Certain anti-breast cancer therapies have been evaluated in the NCl-60 panel of cancer cell lines (Staunton J E, Slonim D K, Coller H A, Tamayo P, Angelo M J, Park J, Scherf U, Lee J K, Reinhold W O, Weinstein J N and others. 2001. Chemosensitivity prediction by transcriptional profiling. Proc Natl Acad Sci USA 98:10787-92.) including four cell lines we studied (MCF7, MDA-MB-231, HS578T, and T-47D). We have confirmed stable copy numbers for a representative group of target genomic intervals in 5 breast cancer lines (MCF7, MDAMB231, HS578T, T47D and SKBR-3). Despite the lack of stratification in pathology in the tumors studied, genomic architectures and functions were preserved in these regions. Paclitaxel and its derivatives, estrone, estradiol, and topotecan are common therapies that act on multiple products encoded by dually stable genes which may, in part, explain why they are effective for inhibiting growth of these cell lines and for treating breast cancer.
Structure (SMILES),anti-cancer activity [1],GI50 (T47D),GI50 (BT549),GI50 (MCF7),GI50 (HS578T [2]),GI50 (MDAMB231),GI50 (HS578T [3]) [µM]
CN(C)C(=N)N=C(N)N [Metformin],has anti-cancer activity,,,,,,
"S=c1nc[nH]c2nc[nH]c12 [Me, mercaptopurine]",,5.45 −log10M and 5.62 −log10M,4.52 −log10M and 3.74 −log10M and 4.00 −log10M,5.78 −log10M and 5.74 −log10M and 5.82 −log10M,4.85 −log10M and 4.84 −log10M,4.61 −log10M and 5.14 −log10M,
"CC[C@@]1(O)C(=O)OCc2c1cc1n(c2=O)Cc2cc3c(CN(C)C)c(O)ccc3nc2-1 [To, topotecan]",,8.24 −log10M and 7.82 −log10M and 7.73 −log10M,7.36 −log10M and 7.05 −log10M and 7.32 −log10M,8.09 −log10M and 7.79 −log10M and 7.83 −log10M,5.96 −log10M and 5.14 −log10M and 5.73 −log10M,6.41 −log10M and 5.67 −log10M and 5.65 −log10M,28.2
"Nc1ccn([C@@H]2O[C@H](CO)[C@@H](O)C2(F)F)c(=O)n1 [Gm, gemcitabane]",,6.26 −log10M and 8.00 −log10M and 5.86 −log10M,7.80 −log10M and 8.00 −log10M,7.99 −log10M and 8.00 −log10M,5.65 −log10M and 4.00 −log10M,5.86 −log10M and 6.28 −log10M and 6.03 −log10M,
"CC(=O)O[C@H]1C(=O)[C@@]2(C)[C@H]([C@H](OC(=O)c3ccccc3)[C@]3(O)C[C@H](OC(=O)[C@H](O)[C@@H](NC(=O)c4ccccc4)c4ccccc4)C(C)=C1C3(C)C)[C@]1(OC(C)=O)CO[C@@H]1C[C@@H]2O [Pa, Paclitaxel]",,6.56 −log10M and 7.27 −log10M and 6.91 −log10M,9.30 −log10M and 7.60 −log10M and 8.45 −log10M,9.06 −log10M and 8.01 −log10M and 8.53 −log10M,8.81 −log10M and 8.22 −log10M and 8.52 −log10M,8.56 −log10M and 7.27 −log10M and 7.91 −log10M,0.00316
